Results as given in PubChem BioAssay (NCI).
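Following 48 hours of exposure in 96-well plates, responses at five concentrations were used to interpolate endpoints linearly. GI50 marks 50% less growth. TGI is the concentration that stops growth completely.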

Experiments:
Assay in all cases: inhibition of tumour cell growth, NCI panel, 48 h
UACC-257 melanoma = system: UACC-257 melanoma
SNB-19 CNS = system: SNB-19 CNS
MDA-MB-435 = system: MDA-MB-435
SK-OV-3 ovarian = system: SK-OV-3 ovarian
MDA-MB-468 breast = system: MDA-MB-468 breast
HOP-62 NSCLC = system: HOP-62 NSCLC
NCI-H460 lung = system: NCI-H460 lung
SF-539 CNS = system: SF-539 CNS
DU-145 prostate = system: DU-145 prostate
OVCAR-8 ovarian = system: OVCAR-8 ovarian
MOLT-4 leukemia = system: MOLT-4 leukemia
HCT-15 colon = system: HCT-15 colon
HT29 colon = system: HT29 colon
LOX IMVI melanoma = system: LOX IMVI melanoma
UACC-62 melanoma = system: UACC-62 melanoma
HOP-92 NSCLC = system: HOP-92 NSCLC
HCT-116 colon = system: HCT-116 colon
NCI-H226 lung = system: NCI-H226 lung
ACHN renal = system: ACHN renal
HS 578T breast = system: HS 578T breast
NCI-H23 lung = system: NCI-H23 lung
SK-MEL-2 melanoma = system: SK-MEL-2 melanoma
MDA-MB-231 breast = system: MDA-MB-231 breast
A549 NSCLC = system: A549 NSCLC
SK-MEL-5 melanoma = system: SK-MEL-5 melanoma
RXF 393 renal = system: RXF 393 renal
HL-60(TB) leukemia = system: HL-60(TB) leukemia
OVCAR-5 ovarian = system: OVCAR-5 ovarian
786-0 renal = system: 786-0 renal
SW-620 colon = system: SW-620 colon
HCC-2998 colon = system: HCC-2998 colon
IGROV1 ovarian = system: IGROV1 ovarian
MCF7 breast = system: MCF7 breast
UO-31 renal = system: UO-31 renal
CCRF-CEM leukemia = system: CCRF-CEM leukemia
BT-549 breast = system: BT-549 breast
RPMI-8226 leukemia = system: RPMI-8226 leukemia
M14 melanoma = system: M14 melanoma
U251 CNS = system: U251 CNS
KM12 colon = system: KM12 colon
SF-268 CNS = system: SF-268 CNS
PC-3 prostate = system: PC-3 prostate
OVCAR-4 ovarian = system: OVCAR-4 ovarian
SK-MEL-28 melanoma = system: SK-MEL-28 melanoma
SN12C renal = system: SN12C renal
NCI/ADR-RES ovarian = system: NCI/ADR-RES ovarian
CAKI-1 renal = system: CAKI-1 renal
COLO 205 colon = system: COLO 205 colon
SR leukemia = system: SR leukemia
T-47D breast = system: T-47D breast
EKVX NSCLC = system: EKVX NSCLC
TK-10 renal = system: TK-10 renal
NCI-H522 lung = system: NCI-H522 lung
MALME-3M melanoma = system: MALME-3M melanoma
K-562 leukemia = system: K-562 leukemia
A498 renal = system: A498 renal
SF-295 CNS = system: SF-295 CNS
SNB-75 CNS = system: SNB-75 CNS
OVCAR-3 ovarian = system: OVCAR-3 ovarian

O=C(CSc1nnc(-c2ccc(-c3nc4ccccc4[nH]3)cc2)o1)Nc1ccc(Cl)cc1
GI50 (UACC-257 melanoma): 9.3 µM
TGI (UACC-257 melanoma): 26.9 µM
GI50 (SNB-19 CNS): 14.6 µM
TGI (SNB-19 CNS): 29.7 µM
GI50 (MDA-MB-435): 3.3 µM
TGI (MDA-MB-435): 13.5 µM
GI50 (SK-OV-3 ovarian): 18.4 µM
TGI (SK-OV-3 ovarian): 43.7 µM
GI50 (MDA-MB-468 breast): 14.7 µM
TGI (MDA-MB-468 breast): 29.6 µM
GI50 (HOP-62 NSCLC): 5.74 µM
TGI (HOP-62 NSCLC): 22.1 µM
GI50 (NCI-H460 lung): 2.93 µM
TGI (NCI-H460 lung): 10.9 µM
GI50 (SF-539 CNS): 5.26 µM
TGI (SF-539 CNS): 17.9 µM
GI50 (DU-145 prostate): 4.62 µM
TGI (DU-145 prostate): 17.4 µM
GI50 (OVCAR-8 ovarian): 5.91 µM
TGI (OVCAR-8 ovarian): 22.3 µM
GI50 (MOLT-4 leukemia): 4.42 µM
TGI (MOLT-4 leukemia): > 100 µM
GI50 (HCT-15 colon): 6.16 µM
TGI (HCT-15 colon): 23.9 µM
GI50 (HT29 colon): 6.62 µM
TGI (HT29 colon): 30 µM
GI50 (LOX IMVI melanoma): 1.94 µM
TGI (LOX IMVI melanoma): 4.4 µM
GI50 (UACC-62 melanoma): 11.4 µM
TGI (UACC-62 melanoma): 23.9 µM
GI50 (HOP-92 NSCLC): 5.06 µM
TGI (HOP-92 NSCLC): 21.5 µM
GI50 (HCT-116 colon): 4.14 µM
TGI (HCT-116 colon): 17.3 µM
GI50 (NCI-H226 lung): 2.5 µM
TGI (NCI-H226 lung): 9.38 µM
GI50 (ACHN renal): 5.05 µM
TGI (ACHN renal): 17.9 µM
GI50 (HS 578T breast): 11.9 µM
TGI (HS 578T breast): 42.6 µM
GI50 (NCI-H23 lung): 7.12 µM
TGI (NCI-H23 lung): 23.2 µM
GI50 (SK-MEL-2 melanoma): 15.9 µM
TGI (SK-MEL-2 melanoma): 35.3 µM
GI50 (MDA-MB-231 breast): 11.4 µM
TGI (MDA-MB-231 breast): 24 µM
GI50 (A549 NSCLC): 3.65 µM
TGI (A549 NSCLC): 16.4 µM
GI50 (SK-MEL-5 melanoma): 12.6 µM
TGI (SK-MEL-5 melanoma): 26.7 µM
GI50 (RXF 393 renal): 4.41 µM
TGI (RXF 393 renal): 16.7 µM
GI50 (HL-60(TB) leukemia): 11.1 µM
TGI (HL-60(TB) leukemia): > 100 µM
GI50 (OVCAR-5 ovarian): 14.8 µM
TGI (OVCAR-5 ovarian): 36.6 µM
GI50 (786-0 renal): 2.04 µM
TGI (786-0 renal): 4.45 µM
GI50 (SW-620 colon): 3.58 µM
TGI (SW-620 colon): 15.8 µM
GI50 (HCC-2998 colon): 24.5 µM
TGI (HCC-2998 colon): > 100 µM
GI50 (IGROV1 ovarian): 15.1 µM
TGI (IGROV1 ovarian): 31.3 µM
GI50 (MCF7 breast): 3.73 µM
TGI (MCF7 breast): 19.3 µM
GI50 (UO-31 renal): 13 µM
TGI (UO-31 renal): 25.7 µM
GI50 (CCRF-CEM leukemia): 5.58 µM
TGI (CCRF-CEM leukemia): 33.1 µM
GI50 (BT-549 breast): 3.4 µM
TGI (BT-549 breast): 14 µM
GI50 (RPMI-8226 leukemia): 8.39 µM
TGI (RPMI-8226 leukemia): 80.3 µM
GI50 (M14 melanoma): 4.9 µM
TGI (M14 melanoma): 18.3 µM
GI50 (U251 CNS): 15.4 µM
TGI (U251 CNS): 30.8 µM
GI50 (KM12 colon): 10.6 µM
TGI (KM12 colon): 39.5 µM
GI50 (SF-268 CNS): 4.14 µM
TGI (SF-268 CNS): 20 µM
GI50 (PC-3 prostate): 3.9 µM
TGI (PC-3 prostate): 16.7 µM
GI50 (OVCAR-4 ovarian): 9.74 µM
TGI (OVCAR-4 ovarian): 22.2 µM
GI50 (SK-MEL-28 melanoma): 4.02 µM
TGI (SK-MEL-28 melanoma): 14.9 µM
GI50 (SN12C renal): 10.1 µM
TGI (SN12C renal): 22.3 µM
GI50 (NCI/ADR-RES ovarian): 14.8 µM
TGI (NCI/ADR-RES ovarian): 85.7 µM
GI50 (CAKI-1 renal): 3.51 µM
TGI (CAKI-1 renal): 13.2 µM
GI50 (COLO 205 colon): 23 µM
TGI (COLO 205 colon): > 100 µM
GI50 (SR leukemia): 10.1 µM
TGI (SR leukemia): > 100 µM
GI50 (T-47D breast): 9.84 µM
TGI (T-47D breast): 44.1 µM
GI50 (EKVX NSCLC): 10.8 µM
TGI (EKVX NSCLC): 28.1 µM
GI50 (TK-10 renal): 24.8 µM
TGI (TK-10 renal): 66.9 µM
GI50 (NCI-H522 lung): 4.94 µM
TGI (NCI-H522 lung): 21.6 µM
GI50 (MALME-3M melanoma): 3.37 µM
TGI (MALME-3M melanoma): 13.2 µM
GI50 (K-562 leukemia): 4.59 µM
TGI (K-562 leukemia): > 100 µM
GI50 (A498 renal): 18.6 µM
TGI (A498 renal): 42.9 µM
GI50 (SF-295 CNS): 7.2 µM
TGI (SF-295 CNS): 22 µM
GI50 (SNB-75 CNS): 2.44 µM
TGI (SNB-75 CNS): 14.5 µM
GI50 (OVCAR-3 ovarian): 5.78 µM
TGI (OVCAR-3 ovarian): 19.1 µM
